Measurements: patent publication US12036262B2, “Edible plant-derived nanoparticles for regulation of gut microbiota” (University of Louisville Research Foundation, Inc., priority 2017, dated 2024)

Tests used:
SpaC = SpaC expression in LGG (qPCR, Western blotting); assay type: cell-based, Lactobacillus rhamnosus; conditions: compared with scrambled miRNA
Description: Quantitative Real-Time PCR for RNA Expression. The quantity of mature miRNAs was determined with quantitative real-time PCR (qPCR) using a miScript II RT kit (QIAGEN Inc., Germantown, Maryland, United States of America) and miScript SYBR Green PCR Kit (QIAGEN) with QIAGEN 3′ universal primers. For analysis of gene mRNA expression, 1 μg of total RNA was reverse transcribed using SuperScript III reverse transcriptase (Invitrogen, Waltham, Massachusetts, United States of America), and quantitation was performed using SsoAdvanced™ Universal SYBR Green Supermix (Bio-Rad Laboratories, Inc., Hercules, California, United States of America) and the listed primers (Table 1) with SsoAdvanced™ Universal SYBR Green Supermix (Bio-Rad). qPCR was performed using a Bio-Rad CFX96 qPCR System with each reaction run in triplicate. Analysis and fold-changes were determined using the comparative threshold cycle (Ct) method. Changes in miRNA or mRNA expression were calculated as fold-change.
Western Blotting. LGG cells were treated as indicated in each individual Figure and harvested from 100-350 ml cultures by centrifugation at 5,000×g for 10 minutes. […] After the Alexa Fluor-647 (Invitrogen) conjugated secondary antibody incubation, the bands were visualized and analyzed using an Odyssey Imager (LI-COR, Lincoln, Nebraska, United States of America). […]

MC-38 cells = test: Migration assay, intracellular LGG; assay type: cell-based, C57BL/6 murine
Description: Cells. C57BL/6 murine colon adenocarcinoma MC-38 cells (gender unknown; Kerafast, Inc., Boston, Massachusetts, United States of America) or human epithelial colorectal adenocarcinoma Caco-2 cells (American Type Culture Collection, ATCC®, Manassas, Virginia, United States of America) were grown in tissue culture plates with Dulbecco's modified Eagle's medium (DMEM) supplemented with 10% heat-inactivated fetal bovine serum (FBS), 100 U/mL penicillin, and 100 μg/mL streptomycin at 37° C. in a 5% CO2 atmosphere.
Migration Assays. MC-38 or Caco-2 cells (ATCC) were seeded at 1×10^5 cells per well in a 12-well tissue culture plate with Dulbecco's modified Eagle's medium (DMEM) without antibiotics. The cells were inoculated with 1×10^7 bacteria per well for 90 minutes at 37° C. in a 5% CO2 atmosphere to allow bacterial adhesion and entry. The number of intracellular bacteria was quantified as described in Zhang & Wang, 1998.

[1] = tested on: SpaC fragment with ath-miR167a binding site; test: SpaC-pGFPuv GFP reporter in E. coli (FACS); assay type: cell-based
Description: Plasmid Construction and Mutagenesis. The SpaC fragment (339-800, LGG RS02140) spanning the sequences of the potential target (710-717) of GELN ath-miR167a was obtained by PCR with cDNA from LGG RNA. PCR was performed using a Bio-Rad thermal cycler T100. The 462-bp PCR product amplified by the primer pair SpaC-pGFPuv-F: 5′-[…]-3′ (SEQ ID NO: 1) and SpaC-pGFPuv-R: 5′-[…]-3′ (SEQ ID NO: 2) was ligated into the Sphl and Xbal restriction enzyme sites of a pGFPuv vector (Takara Bio/Clontech, Mountain View, California, United States of America) to obtain a green fluorescent protein (GFP) expression reporter. SpaC-pGFPuv fused with the SpaC gene fragment, which can be expressed in prokaryotic cells. To generate mutants of SpaC, the oligonucleotide primers SpaCMut-F, 5′-[…] […]
Flow Cytometry. […] Data were acquired using a BD FACSCalibur flow cytometer (BD Biosciences, San Jose, California, United States of America) and analyzed using FlowJo software (Tree Star Inc., Ashland, Oregon, United States of America). To visualize bacteria stained with PKH26/67 and transformed with SpaC-pGFPuv plasmid, the PKH26/67-positive and GFP-positive bacteria were detected by flow cytometry using a BD FACSCalibur flow cytometer (BD Biosciences, San Jose, California, United States of America), and data were analyzed using FlowJo software (Tree Star Inc., Ashland, Oregon, United States of America).

In the case of “ath-miR167a: GELN miRNA, SEQ ID NO: 9 (UGAAGCUGCCAGCAUGAUCUA; expressed or natural sequence)”, the “SpaC expression in LGG” value (SpaC) is reported as “significantly down-regulated”, the “LGG entry into MC38 cells” value (MC-38 cells) is reported as “could prevent the entry of LGG into gut epithelial cells” and the “GFP expression with mutation that disrupted the binding site” value [1] is reported as “entirely restored GFP expression”.
